Test results from ChEMBL document CHEMBL5625226, “Synthesis, computational and experimental pharmacological studies for (thio)ether-triazine 5-HT6R ligands with noticeable action on AChE/BChE and chalcogen-dependent intrinsic activity in search for new class of drugs against Alzheimer's disease” (Eur J Med Chem, 2023).

Experiments:
[1] = target: T1, 5-hydroxytryptamine receptor 6 (Homo sapiens, UniProt P50406); conditions: 1321N1, filed as antagonist, dose 10.0 mM, time 30.0 min
[2] = target: 5-hydroxytryptamine receptor 7 (Homo sapiens, UniProt P34969); experiment: biochemical
D(2) dopamine receptor = D(2) dopamine receptor (Homo sapiens, UniProt P14416); experiment: biochemical
[3] = target: 5-hydroxytryptamine receptor 2A (Homo sapiens, UniProt P28223); experiment: biochemical
cells = conditions: Rattus norvegicus, Whole blood cell, 0.05 h
Description: Antiplatelet activity against rat whole blood assessed as inhibition of collagen induced platelet aggregation measured after 3 mins

[4] = target: T1, 5-hydroxytryptamine receptor 6; experiment: biochemical
Acetylcholinesterase = Acetylcholinesterase (Electrophorus electricus, UniProt O42275)
Description: Inhibition of electric eel AChE using acetylthiocholine iodide as substrate preincubated with compounds for 20 mins followed by substrate addition and measured after 5 mins by Ellman's method

Cholinesterase = Cholinesterase (Equus caballus, UniProt P81908)
Description: Inhibition of equine serum BChE using butyrylthiocholine iodide as substrate preincubated for 20 mins followed by substrate addition and measured after 5 mins by Ellman's method

HepG2 = experiment: cells; conditions: Homo sapiens, HepG2, 1 h
Description: Neuroprotective activity against H202 induced oxidative stress in human HepG2 cells measured after 1 hr by DCFH-DA staining based analysis

SH-SY5Y = experiment: cells; conditions: Homo sapiens, 1 h
Description: Neuroprotective activity against H202 induced oxidative stress in human SH-SY5Y cells measured after 1 hr by DCFH-DA staining based analysis

Acetylcholinesterase, sequence (O42275 whole entry): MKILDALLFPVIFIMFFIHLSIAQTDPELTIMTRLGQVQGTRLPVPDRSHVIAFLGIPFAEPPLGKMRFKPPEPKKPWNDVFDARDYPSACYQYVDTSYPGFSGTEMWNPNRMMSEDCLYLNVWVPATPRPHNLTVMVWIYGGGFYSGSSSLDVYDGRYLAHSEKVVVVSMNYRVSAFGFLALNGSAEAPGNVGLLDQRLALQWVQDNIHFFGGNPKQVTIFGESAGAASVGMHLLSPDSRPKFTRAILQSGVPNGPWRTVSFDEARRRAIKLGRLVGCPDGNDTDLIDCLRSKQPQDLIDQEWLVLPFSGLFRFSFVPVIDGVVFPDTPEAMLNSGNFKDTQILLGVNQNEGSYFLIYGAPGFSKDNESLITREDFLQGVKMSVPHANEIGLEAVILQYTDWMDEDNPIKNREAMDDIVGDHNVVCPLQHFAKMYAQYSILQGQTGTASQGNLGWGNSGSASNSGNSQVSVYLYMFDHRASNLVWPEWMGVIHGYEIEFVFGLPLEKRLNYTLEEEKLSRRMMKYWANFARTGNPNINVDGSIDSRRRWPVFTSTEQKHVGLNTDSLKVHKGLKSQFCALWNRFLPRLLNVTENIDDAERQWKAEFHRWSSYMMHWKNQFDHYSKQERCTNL
Cholinesterase, sequence (P81908 whole entry): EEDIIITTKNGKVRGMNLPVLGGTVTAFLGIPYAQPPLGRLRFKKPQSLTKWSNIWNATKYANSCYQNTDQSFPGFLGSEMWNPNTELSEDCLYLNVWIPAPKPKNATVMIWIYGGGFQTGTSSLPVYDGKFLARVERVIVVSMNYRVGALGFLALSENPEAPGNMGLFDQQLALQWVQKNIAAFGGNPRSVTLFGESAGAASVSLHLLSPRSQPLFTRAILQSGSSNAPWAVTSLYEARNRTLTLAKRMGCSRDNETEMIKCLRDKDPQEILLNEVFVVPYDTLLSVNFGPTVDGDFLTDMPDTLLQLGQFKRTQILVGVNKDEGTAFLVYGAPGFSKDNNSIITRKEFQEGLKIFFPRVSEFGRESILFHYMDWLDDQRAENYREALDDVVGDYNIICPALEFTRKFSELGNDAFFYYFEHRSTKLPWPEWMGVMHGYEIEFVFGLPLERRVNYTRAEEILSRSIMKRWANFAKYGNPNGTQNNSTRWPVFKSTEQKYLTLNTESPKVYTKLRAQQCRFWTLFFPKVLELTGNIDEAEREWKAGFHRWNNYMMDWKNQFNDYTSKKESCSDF
5-hydroxytryptamine receptor 2A, sequence (P28223 whole entry): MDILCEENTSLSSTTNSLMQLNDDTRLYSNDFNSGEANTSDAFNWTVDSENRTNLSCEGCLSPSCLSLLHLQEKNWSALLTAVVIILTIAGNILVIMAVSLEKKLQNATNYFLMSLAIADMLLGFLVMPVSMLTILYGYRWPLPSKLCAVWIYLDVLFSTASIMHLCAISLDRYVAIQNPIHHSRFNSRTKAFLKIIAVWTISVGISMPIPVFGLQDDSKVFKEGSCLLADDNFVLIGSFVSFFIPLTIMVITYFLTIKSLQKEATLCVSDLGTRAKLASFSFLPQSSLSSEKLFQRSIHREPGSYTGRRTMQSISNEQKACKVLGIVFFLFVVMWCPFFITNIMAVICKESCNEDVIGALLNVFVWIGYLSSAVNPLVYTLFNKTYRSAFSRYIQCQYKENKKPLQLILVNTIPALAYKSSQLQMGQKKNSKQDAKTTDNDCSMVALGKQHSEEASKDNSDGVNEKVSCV
T1 sequence (P50406 whole entry): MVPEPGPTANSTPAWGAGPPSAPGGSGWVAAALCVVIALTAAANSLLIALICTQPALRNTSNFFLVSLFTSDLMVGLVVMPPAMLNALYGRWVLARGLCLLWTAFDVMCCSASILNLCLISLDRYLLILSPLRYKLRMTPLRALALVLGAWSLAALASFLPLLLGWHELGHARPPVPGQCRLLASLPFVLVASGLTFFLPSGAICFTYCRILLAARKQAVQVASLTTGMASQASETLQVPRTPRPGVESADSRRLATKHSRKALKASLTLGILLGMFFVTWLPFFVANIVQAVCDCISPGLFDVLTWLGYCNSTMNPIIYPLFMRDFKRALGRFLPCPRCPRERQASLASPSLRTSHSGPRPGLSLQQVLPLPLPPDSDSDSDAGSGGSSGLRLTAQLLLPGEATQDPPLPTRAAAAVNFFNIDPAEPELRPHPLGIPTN
5-hydroxytryptamine receptor 7, sequence (P34969 whole entry): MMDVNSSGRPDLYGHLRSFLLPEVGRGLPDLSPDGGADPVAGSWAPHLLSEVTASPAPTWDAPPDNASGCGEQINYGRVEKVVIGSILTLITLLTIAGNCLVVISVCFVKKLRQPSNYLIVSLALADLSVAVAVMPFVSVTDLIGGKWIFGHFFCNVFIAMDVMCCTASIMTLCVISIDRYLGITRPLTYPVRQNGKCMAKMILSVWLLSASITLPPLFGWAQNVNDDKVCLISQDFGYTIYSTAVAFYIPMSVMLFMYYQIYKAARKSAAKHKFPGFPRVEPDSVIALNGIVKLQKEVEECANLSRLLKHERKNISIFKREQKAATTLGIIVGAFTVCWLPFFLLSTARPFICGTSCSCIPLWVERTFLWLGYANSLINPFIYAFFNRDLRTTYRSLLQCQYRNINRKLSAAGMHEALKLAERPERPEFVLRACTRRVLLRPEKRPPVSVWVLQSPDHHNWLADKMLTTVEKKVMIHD
D(2) dopamine receptor, sequence (P14416 whole entry): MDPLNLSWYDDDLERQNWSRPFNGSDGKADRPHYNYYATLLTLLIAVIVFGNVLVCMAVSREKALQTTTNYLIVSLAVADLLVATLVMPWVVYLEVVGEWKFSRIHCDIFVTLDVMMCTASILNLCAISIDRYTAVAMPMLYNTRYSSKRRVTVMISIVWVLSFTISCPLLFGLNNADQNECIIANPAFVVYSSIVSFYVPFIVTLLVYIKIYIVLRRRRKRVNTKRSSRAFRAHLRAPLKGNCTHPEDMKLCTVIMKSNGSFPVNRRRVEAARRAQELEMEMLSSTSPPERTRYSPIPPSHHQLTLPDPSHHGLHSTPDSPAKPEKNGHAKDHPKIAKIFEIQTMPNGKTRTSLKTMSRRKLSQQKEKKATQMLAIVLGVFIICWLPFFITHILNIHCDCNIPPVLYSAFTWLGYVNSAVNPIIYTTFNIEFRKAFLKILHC

Ki [2] [µM]	Ki (D(2) dopamine receptor) [µM]	Ki [3] [µM]	Ki [4] [µM]	SMILES	further results
				COc1ccc(NS(=O)(=O)c2ccc(I)cc2)cc1N1CCN(C)CC1	Emax [1]: 100%
2.56	0.879	2.15		CCC(Sc1cccc(Cl)c1Cl)c1nc(N)nc(N2CCN(C)CC2)n1 (racemic)	
				CC(=O)Oc1ccccc1C(=O)O [ASPIRIN]	IC50 (cells): 17.4 µM
5.67		0.188		CCC(Sc1cc(Cl)ccc1Cl)c1nc(N)nc(N2CCNCC2)n1 (racemic)	
				CC(Oc1cc(Cl)cc(Cl)c1)c1nc(N)nc(N2CCN(C)CC2)n1 (stereo not drawn)	IC50 (Acetylcholinesterase): 3.95 µM
3.32		0.115		CCC(Sc1cccc(Cl)c1Cl)c1nc(N)nc(N2CCNCC2)n1 (racemic)	
2.47	7.27	0.427	0.127	CCC(Sc1ccccc1)c1nc(N)nc(N2CCN(C)CC2)n1 (racemic)	
				CCCCC(Oc1cccc(Cl)c1Cl)c1nc(N)nc(N2CCN(C)CC2)n1 (stereo not drawn)	IC50 (Cholinesterase): 0.5 µM; IC50 (HepG2): 13.2 µM; IC50 (SH-SY5Y): 29.9 µM
5.63	0.797	0.573	0.079	CN1CCN(c2nc(N)nc(C(C)(C)Oc3ccccc3Cl)n2)CC1	
2.87	0.53		0.152	CC(Sc1ccc(Cl)c(Cl)c1)c1nc(N)nc(N2CCN(C)CC2)n1 (racemic)	
3.72		0.062		CCC(Oc1cc(Cl)ccc1Cl)c1nc(N)nc(N2CCNCC2)n1 (racemic)	
6.21	0.971		0.009	CCCC(Sc1cc(Cl)ccc1Cl)c1nc(N)nc(N2CCN(C)CC2)n1 (racemic)	
8.15		4.82	0.414	CCC(Oc1ccccc1)c1nc(N)nc(N2CCNCC2)n1 (racemic)	IC50 (HepG2): 0.02 µM; IC50 (SH-SY5Y): 42.1 µM
				CCC(Oc1cc(Cl)ccc1Cl)c1nc(N)nc(N2CCN(C)CC2)n1 (stereo not drawn)	IC50 (HepG2): 7.4 µM; IC50 (Acetylcholinesterase): 11.2 µM; IC50 (SH-SY5Y): 81.3 µM
8.63	0.663	0.5	0.074	CCCC(Sc1cc(Cl)cc(Cl)c1)c1nc(N)nc(N2CCN(C)CC2)n1 (racemic)	
5.92	0.727	0.892	0.476	CN1CCN(c2nc(N)nc(C(C)(C)Sc3ccccc3Cl)n2)CC1	
				CC(Oc1ccc(Cl)c(Cl)c1)c1nc(N)nc(N2CCN(C)CC2)n1 (stereo not drawn)	IC50 (Acetylcholinesterase): 9.52 µM

SMILES	Ki [2] [µM]	Ki (D(2) dopamine receptor) [µM]	Ki [3] [µM]	Ki [4] [µM]	further results
CC(Sc1cc(Cl)cc(Cl)c1)c1nc(N)nc(N2CCN(C)CC2)n1 (racemic)	6.04	0.362	0.178	0.103	IC50 (Acetylcholinesterase): 5.37 µM
CCC(Sc1cc(Cl)ccc1Cl)c1nc(N)nc(N2CCN(C)CC2)n1 (racemic)	5.14	1	0.551		IC50 (Cholinesterase): 12.1 µM
CCC(Sc1ccc(Cl)c(Cl)c1)c1nc(N)nc(N2CCN(C)CC2)n1 (racemic)	5.16	0.897	0.547	0.181	IC50 (Cholinesterase): 15 µM; IC50 (Acetylcholinesterase): 4.57 µM
CCC(Oc1cccc(Cl)c1Cl)c1nc(N)nc(N2CCNCC2)n1 (racemic)	4.51		0.118	0.179	IC50 (Cholinesterase): 10 µM
CCCCC(Sc1cccc(Cl)c1Cl)c1nc(N)nc(N2CCN(C)CC2)n1 (racemic)	1.8		0.179	0.169	IC50 (Cholinesterase): 9.95 µM
CC(Sc1cc(Cl)ccc1Cl)c1nc(N)nc(N2CCN(C)CC2)n1 (racemic)	61	4.78		0.169	IC50 (Acetylcholinesterase): 9.19 µM
CCC(Sc1cc(Cl)cc(Cl)c1)c1nc(N)nc(N2CCN(C)CC2)n1 (racemic)	6.04	0.362	0.178	0.103	IC50 (Cholinesterase): 9.8 µM
